Test results from US9579407B2, “Radiolabeled compounds and their use as radiotracers for quantitative imaging of phosphodiesterase (PDE10A) in mammals” (TAKEDA PHARMACEUTICAL COMPANY LIMITED, priority 2011, dated 2017).
pIC50: −log10 of the molar value. One block for each compound: values may come before it.

How the values were obtained:
[1] = PET brain uptake (whole brain and regional), [18F]compound; type: in vivo, cynomolgus monkeys; details: for regional brain uptake: regions of interest on MRI/PET coregistered images; for time at which whole brain uptake decreased to half / time at which whole brain uptake reached peak / whole brain uptake at the peak: i.v.; for time at which whole brain uptake reached peak: 180-min PET; for whole brain uptake at the peak: % ID = total radioactivity in the brain*100/injected radioactivity
Experimental: (§1) PET measurements were performed with the High Resolution Research Tomograph system (HRRT) (Siemens Molecular Imaging) using three cynomolgus monkeys with body weight of 3730 g to 4845 g. The monkeys were maintained under gas anesthesia of sevoflurane, oxygen, and medical air during PET measurements.
(§2) 180-min dynamic brain PET data were acquired in List mode after 148 and 157 MBq of [^18F]compound of Example 119 and 159 and 163 MBq of [^18F]compound of Example 120 were injected intravenously. List-mode data were reconstructed using the ordinary Poisson-3D-ordered subset expectation maximization (OP-3D-OSEM) algorithm, with 10 iterations and 16 subsets including modelling of the point spread function (PSF). During PET acquisition, venous blood sampling was performed for the metabolite analysis.
(§3) T1-weighted MR images were acquired with an MRI system GE 1.5 T Signa unit (Milwaukee, Wis., USA). The T1 sequence was a 3-D SPGR protocol with the following settings: repetition time (TR) 21 ms, flip angle 35°, FOV 12.8, matrix 256×256×128, 128×1.0 mm slices.
(§4) Regions of interest (ROIs) for Caudate, Putamen, Nucleus Accumbens, Thalamus, Cerebellum, Frontal cortex, Temporal cortex, and whole brain were delineated on MRI/PET coregistered images using PMOD software (v3.2PMOD Technologies Ltd. Zurich, Switzerland). Time activity curves were generated for these regions. The uptake was expressed as % ID (=total radioactivity in the brain (MBq)*100/injected radioactivity (MBq)) or % SUV (=radioactivity in the region (MBq/cc)*100/(injected radioactivity (MBq)/Body weight (g))). Metabolite fraction in the plasma was measured by a radio LC analysis. The results are shown in FIGS. 13, 14, 15, 16, 17, 18, 19 and 20.

[2] = tested on: PDE10A; test: PET specific radioligand binding in putamen (PDE10A rich region) vs cerebellum, [18F]compound; type: in vivo, cynomolgus monkeys; details: for ratio of the specific binding between the uptake in the target region and the uptake in the cerebellum: increased up to; for time of peak of specific binding in Putamen: uptake of the putamen minus the cerebellum
Experimental: (§5) Since the compounds of the present invention show efficacy exhibition, they are useful as PET radioligands of PDE10A.
as §1, §2, §4

[3] = Plasma metabolite analysis (parent fraction) during PET, [18F]compound; type: in vivo, cynomolgus monkeys; details: venous plasma, i.v.
Experimental: as §1, §2, §4

[4] = target: Human PDE10A enzyme (Homo sapiens (Human), UniProt Q9Y233); test: PDE10A enzyme inhibition (SPA, [3H]cGMP); type: biochemical; details: unlabeled compound
Experimental: Many of the compounds within the present invention had activity in inhibiting the human PDE10A enzyme in the aforementioned assay, generally with an […] of less than about 0.1 μM. Such a result is indicative of the intrinsic activity of the compounds in use as inhibitors of the PDE10A enzyme.
Human PDE10A enzyme was generated from Sf9 or COS-7 cells transfected with the full-length gene. Cloned enzyme was extracted from homogenized cell pellets. The extracted enzyme from sf9 cells was partially purified using His-tag affinity column. The enzyme was stored at −70° C. until use. PDE activity was measured using a SPA (Scintillation Proximity Assay) (GE Healthcare). To evaluate the inhibitory activity, 10 μL of serial diluted compounds were incubated with 20 μL of PDE enzyme in assay buffer (50 mM HEPES-NaOH, 8.3 mM MgCl2, 1.7 mM EGTA, 0.1% BSA (pH 7.4)) for 30 min. at room temperature. Final concentration of DMSO in the assay was 1% as compounds were tested in duplicate in 96-well half-area plates (Corning). To start the reaction, 10 μL of substrate [^3H] cGMP (25 or 50 nM; enclosed in SPA kits from GE Healthcare or purchased from PerkinElmer, respectively) was added for a final assay volume of 40 μL. After 60 min incubation at room temperature, yttrium SPA beads containing zinc sulphate were added (20 μL at 6 mg/mL) to terminate the PDE reaction. After being settled for 60 min., assay plates were counted in a scintillation counter (PerkinElmer) to allow calculation of inhibition rate. IC50 values were calculated on the basis of 0% control wells with DMSO and 100% control wells without enzyme.

[5] = tested on: Human PDE1A, 2A3, 3A, 4D2, 5A1, 6AB, 7B, 8A1, 9A2, and 11A4 enzymes; test: PDE family enzyme inhibition selectivity assay (SPA); type: biochemical; details: ratio of IC50 for each PDE other than PDE10A to IC50 for PDE10A
Experimental: The PDE10A IC50 is a measure of the ability of the test compound to inhibit the action of the PDE10A enzyme. To determine the selectivity of the test compounds for PDE10A, the IC50 of the compound was determined for PDEs 1-9, and 11.
Human PDE1A, 3A, 4D2, 5A1, 7B, 8A1, 9A2, and 11A4 enzymes were purchased from BPS Bioscience. Human PDE6AB enzyme was purchased from Scottish Biomedical. Human PDE2A3 was generated from Sf9 transfected with the full-length gene in house. PDE activities were measured using a SPA (Scintillation Proximity Assay) (PerkinElmer). To evaluate the inhibitory activity, 10 μL of serial diluted compounds were incubated with 20 μL of PDE enzyme in assay buffer (50 mM HEPES-NaOH, 8.3 mM MgCl2, 1.7 mM EGTA, 0.1% BSA (pH 7.4)) for 30 min. at room temperature. Final concentration of DMSO in the assay was 1% as compounds were tested in duplicate in 96-well half-area plates (Corning). To start the reaction, 10 μL of substrate [^3H] cGMP (PerkinElmer) for PDE1A, 2A3, 5A1, 6AB, 9A2, and 11A4 or [^3H] cAMP (PerkinElmer) for PDE3A, 4D2, 7B, and 8A1 was added for a final assay volume of 40 μL. After 60 min incubation at room temperature, yttrium SPA beads containing zinc sulphate were added (20 μL at 6 mg/mL) to terminate the PDE reaction. After being settled for 60 min., assay plates were counted in a scintillation counter (PerkinElmer) to allow calculation of inhibition rate. IC50 values were calculated on the basis of 0% control wells with DMSO and 100% control wells without enzyme. Selectivity was defined as the ratio of IC50 for each PDE other than PDE10A to IC50 for PDE10A.

[6] = Plasma metabolite analysis (parent fraction) during PET, [11C]compound; type: in vivo, rhesus monkeys; details: venous plasma, i.v.
Experimental: (§6) PET measurements were performed with the High Resolution Research Tomograph system (HRRT) (Siemens Molecular Imaging) using two rhesus monkeys with body weight of 4450 g and 5000 g. The monkeys were maintained under gas anesthesia of sevoflurane, oxygen, and medical air during PET measurements. 123-min dynamic brain PET data were acquired in List mode after 150 and 162 MBq of [^11C] compound of Example 2 and 159 and 162 MBq of [^11C] compound of Example 3 were injected intravenously. List-mode data were reconstructed using the ordinary Poisson-3D-ordered subset expectation maximization (OP-3D-OSEM) algorithm, with 10 iterations and 16 subsets including modelling of the point spread function (PSF). During PET acquisition, venous blood sampling was performed for the metabolite analysis.
as §4, with “(v3.1 PMOD” for “(v3.2PMOD”, “3, 4, 5, 6, 7, 8, 9” for “13, 14, 15, 16, 17, 18, 19”, “10.” for “20.”

[7] = PET brain uptake (whole brain and regional), [11C]compound; type: in vivo, rhesus monkeys; details: for regional brain uptake: regions of interest on MRI/PET coregistered images; for time at which whole brain uptake decreased to half / time at which whole brain uptake reached peak / whole brain uptake at the peak: i.v.; for time at which whole brain uptake reached peak: 123-min PET; for whole brain uptake at the peak: % ID = total radioactivity in the brain*100/injected radioactivity
Experimental: as §6, §3
as §4, with “(v3.1 PMOD” for “(v3.2PMOD”, “3, 4, 5, 6, 7, 8, 9” for “13, 14, 15, 16, 17, 18, 19”, “10.” for “20.”

[8] = tested on: PDE10A; test: PET specific radioligand binding in putamen (PDE10A rich region) vs cerebellum, [11C]compound; type: in vivo, rhesus monkeys; details: for ratio of the specific binding between the uptake in the target region and the uptake in the cerebellum: increased up to, during 123 min PET measurements; for time of peak of specific binding in Putamen: uptake of the putamen minus the cerebellum
Experimental: as §5, §6
as §4, with “(v3.1 PMOD” for “(v3.2PMOD”, “3, 4, 5, 6, 7, 8, 9” for “13, 14, 15, 16, 17, 18, 19”, “10.” for “20.”

Sequence of Human PDE10A enzyme (Q9Y233 267-1055): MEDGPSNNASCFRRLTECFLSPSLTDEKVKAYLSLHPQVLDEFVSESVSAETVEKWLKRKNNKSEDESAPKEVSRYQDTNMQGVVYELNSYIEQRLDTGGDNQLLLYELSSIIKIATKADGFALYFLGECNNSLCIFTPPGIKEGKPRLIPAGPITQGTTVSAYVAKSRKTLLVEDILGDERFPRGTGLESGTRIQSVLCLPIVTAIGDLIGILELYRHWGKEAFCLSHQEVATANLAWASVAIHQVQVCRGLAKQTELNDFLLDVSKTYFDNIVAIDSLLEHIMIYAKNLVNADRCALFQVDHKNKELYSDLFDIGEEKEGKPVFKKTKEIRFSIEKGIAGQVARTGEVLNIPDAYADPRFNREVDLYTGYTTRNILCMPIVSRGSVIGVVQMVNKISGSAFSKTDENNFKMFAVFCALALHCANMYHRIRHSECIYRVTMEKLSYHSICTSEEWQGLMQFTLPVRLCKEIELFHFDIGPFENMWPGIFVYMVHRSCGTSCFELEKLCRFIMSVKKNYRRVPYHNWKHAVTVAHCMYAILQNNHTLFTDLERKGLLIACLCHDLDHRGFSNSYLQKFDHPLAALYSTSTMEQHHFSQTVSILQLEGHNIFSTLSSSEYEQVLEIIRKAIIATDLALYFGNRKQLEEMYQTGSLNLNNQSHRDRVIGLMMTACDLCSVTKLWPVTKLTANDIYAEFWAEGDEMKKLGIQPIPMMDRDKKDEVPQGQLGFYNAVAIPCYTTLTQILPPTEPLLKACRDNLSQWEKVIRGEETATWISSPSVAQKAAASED

time at which whole brain uptake decreased to half [1]: 23 to 35 min
time at which whole brain uptake reached peak [1]: 2.5 to 4.5 min
whole brain uptake at the peak [1]: 3.6 % ID
fraction of parent compound ([3]; at 60 min): 64-74%
fraction of parent compound ([3]; at 180 min): 51-72%
SMILES: [2H]C([2H])(F)C([2H])([2H])Oc1cn(-c2ccc(C3CCOCC3)cc2F)nc(-c2ccnn2-c2ccccc2)c1=O [Example 120, 5-(2-[^18F]fluoro-ethyloxy-d4)-1-(2-fluoro-4-(tetrahydro-2H-pyran-4-yl)phenyl)-3-(1-phenyl-1H-pyrazol-5-yl)pyridazin-4(1H)-one]
regional brain uptake [1]: Putamen showed highest uptake, followed by Caudate, Nuclear Accumbens and Thalamus
ratio of the specific binding between the uptake in the target region and the uptake in the cerebellum ([2]; during 65-75 min PET measurements): 1.5-1.9
time of peak of specific binding in Putamen [2]: 35 to 41 min

pIC50 [4]: > 8.00
Selectivity over other PDEs [5]: >1000-fold
SMILES: [2H]C([2H])(F)Oc1cn(-c2ccc(C3CCOCC3)cc2F)nc(-c2ccnn2-c2ccccc2)c1=O [Reference Example 122, 5-(Fluoromethoxy-d2)-1-{2-fluoro-4-(tetrahydro-2H-pyran-4-yl)phenyl}-3-(1-phenyl-1H-pyrazol-5-yl)pyridazin-4(1H)-one]

time at which whole brain uptake decreased to half [1]: 23 min
time at which whole brain uptake reached peak [1]: 2.5 min
whole brain uptake at the peak [1]: 5.2-5.7 % ID
fraction of parent compound ([3]; at 60 min): 62-71%
fraction of parent compound ([3]; at 180 min): 60-63%
SMILES: [2H]C([2H])(F)Oc1cn(-c2ccc(C3CCOCC3)cc2F)nc(-c2ccnn2-c2ccccc2)c1=O [Example 119, 5-([^18F]fluoro-methyloxy-d2)-1-(2-fluoro-4-(tetrahydro-2H-pyran-4-yl)phenyl)-3-(1-phenyl-1H-pyrazol-5-yl)pyridazin-4(1H)-one]
regional brain uptake [1]: Putamen showed highest uptake, followed by Caudate, Nuclear Accumbens and Thalamus
ratio of the specific binding between the uptake in the target region and the uptake in the cerebellum ([2]; during 47-65 min PET measurements): 3.0-3.9
time of peak of specific binding in Putamen [2]: 18.5 to 29 min

pIC50 [4]: > 9.00
Selectivity over other PDEs [5]: >1000-fold
SMILES: COc1cn(-c2ccc(C3CCOCC3)cc2F)nc(-c2ccnn2-c2ccccc2)c1=O [Reference Example 16, 1-[2-Fluoro-4-(tetrahydro-2H-pyran-4-yl)phenyl]-5-methoxy-3-(1-phenyl-1H-pyrazol-5-yl)pyridazin-4(1H)-one]

pIC50 [4]: > 8.00
Selectivity over other PDEs [5]: >100-fold
SMILES: [2H]C([2H])(F)C([2H])([2H])Oc1cn(-c2ccc(C3CCOCC3)cc2F)nc(-c2ccnn2-c2ccccc2)c1=O [Reference Example 123, 5-(2-Fluoroethoxy-d4)-1-{2-fluoro-4-(tetrahydro-2H-pyran-4-yl)phenyl}-3-(1-phenyl-1H-pyrazol-5-yl)pyridazin-4(1H)-one]

The remaining lines, values behind:

SMILES: [11CH3]Oc1cn(-c2ccc(N3CC(F)(F)C3)cc2F)nc(-c2ccnn2-c2ccccc2)c1=O [Example 2]
fraction of parent compound ([6]; at 30 min): 70-76%
fraction of parent compound ([6]; at 90 min): 52-58%
regional brain uptake [7]: Putamen showed highest uptake, followed by Caudate, Nuclear Accumbens and Thalamus
time at which whole brain uptake decreased to half [7]: 60 to 66 min
time at which whole brain uptake reached peak [7]: 2.5 to 7.5 min
whole brain uptake at the peak [7]: 3.3-5.1 % ID
ratio of the specific binding between the uptake in the target region and the uptake in the cerebellum [8]: 2.5-2.7
time of peak of specific binding in Putamen [8]: 48 min

SMILES: COc1cn(-c2ccc(N3CC(F)(F)C3)cc2F)nc(-c2ccnn2-c2ccccc2)c1=O [Reference Example 18, 1-[4-(3,3-Difluoroazetidin-1-yl)-2-fluorophenyl]-5-methoxy-3-(1-phenyl-1H-pyrazol-5-yl)pyridazin-4(1H)-one]
pIC50 [4]: > 9.00
Selectivity over other PDEs [5]: >1000-fold

SMILES: [11CH3]Oc1cn(-c2ccc(C3CCOCC3)cc2F)nc(-c2ccnn2-c2ccccc2)c1=O [Example 3, 1-[2-Fluoro-4-(tetrahydro-2H-pyran-4-yl)phenyl]-5-[^11C]methoxy-3-(1-phenyl-1H-pyrazol-5-yl)pyridazin-4(1H)-one]
fraction of parent compound ([6]; at 30 min): 56-57%
fraction of parent compound ([6]; at 90 min): 45-53%
regional brain uptake [7]: Putamen showed highest uptake, followed by Caudate, Nuclear Accumbens and Thalamus
time at which whole brain uptake decreased to half [7]: 30 min
time at which whole brain uptake reached peak [7]: 2 min
whole brain uptake at the peak [7]: 3.3-4.1 % ID
ratio of the specific binding between the uptake in the target region and the uptake in the cerebellum [8]: approximately six
time of peak of specific binding in Putamen [8]: 42 min
